Data from ChEMBL document CHEMBL1201862, “PubChem BioAssay data set” (2004).
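Five concentrations, 48 hours, 96-well plates. Here, GI50 denotes the concentration required for 50% inhibition of growth.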 Active and inactive are the calls of the source. No stated cut-off is given here; in the data, active = GI50 up to about 1.1 µM and inactive = higher.

What was measured:
Assay in all cases: inhibition of tumour cell growth, NCI panel, 48 h
[1] = test system: HCT-116
[2] = test system: SNB-19
[3] = test system: COLO 205
[4] = test system: RXF 393
[5] = test system: KM12
[6] = test system: HOP-62
[7] = test system: HL-60
[8] = test system: K562
[9] = test system: M14
[10] = test system: OVCAR-3
[11] = test system: HT-29
[12] = test system: SF-268
[13] = test system: LOX IMVI
[14] = test system: CAKI-1
[15] = test system: LXFL 529
[16] = test system: U-251
[17] = test system: MDA-N
[18] = test system: EKVX
[19] = test system: MDA-MB-231
[20] = test system: T47D

Structure (SMILES) | GI50 [1] | GI50 [2] | GI50 [3] | GI50 [4] | GI50 [5] | GI50 [6] | GI50 [7] | GI50 [8] | GI50 [9] | GI50 [10] | GI50 [11] | GI50 [12] | GI50 [13] | GI50 [14] | GI50 [15] | GI50 [16] | GI50 [17] | GI50 [18] | GI50 [19] | GI50 [20]
Oc1ccc2ccccc2c1/N=N/c1ccc(F)cc1 | > 100 µM (inactive) | > 100 µM (inactive) | > 100 µM (inactive) | > 100 µM (inactive) | 72.4 µM (inactive) | > 100 µM (inactive) | > 100 µM (inactive) | > 100 µM (inactive) | > 100 µM (inactive) | > 100 µM (inactive) | > 100 µM (inactive) | > 100 µM (inactive) | > 100 µM (inactive) | > 100 µM (inactive) | > 100 µM (inactive) | > 100 µM (inactive) | – | – | – | –
CN(Cc1cnc2nc(N)nc(N)c2n1)c1ccc(C(=O)NC(CCC(=O)O)C(=O)O)c2ccccc12 (centres undefined) | 0.000647 µM (active) | 0.0612 µM (active) | 0.0391 µM (active) | < 0.1 µM (active) | 0.00256 µM (active) | < 0.0185 µM (active) | 0.000435 µM (active) | 0.000301 µM (active) | 0.00869 µM (active) | 0.0429 µM (active) | 0.00168 µM (active) | 0.00536 µM (active) | 0.000508 µM (active) | 0.00489 µM (active) | 0.00135 µM (active) | 0.0114 µM (active) | 0.000834 µM (active) | < 0.1 µM (active) | < 0.1 µM (active) | 0.204 µM (active)
CNS(=O)(=O)NNS(=O)(=O)c1ccc(OC)cc1 | > 100 µM (inactive) | > 100 µM (inactive) | > 100 µM (inactive) | > 100 µM (inactive) | > 100 µM (inactive) | > 100 µM (inactive) | > 100 µM (inactive) | > 100 µM (inactive) | > 100 µM (inactive) | > 100 µM (inactive) | > 100 µM (inactive) | > 100 µM (inactive) | > 100 µM (inactive) | > 100 µM (inactive) | > 100 µM (inactive) | > 100 µM (inactive) | – | > 100 µM (inactive) | – | –
N#CC(C#N)c1ccc(C(=O)N2CCC[C@H]2CO)cc1 | – | > 100 µM (inactive) | > 100 µM (inactive) | > 100 µM (inactive) | > 100 µM (inactive) | > 100 µM (inactive) | > 100 µM (inactive) | > 100 µM (inactive) | > 100 µM (inactive) | > 100 µM (inactive) | > 100 µM (inactive) | > 100 µM (inactive) | > 100 µM (inactive) | > 100 µM (inactive) | > 100 µM (inactive) | > 100 µM (inactive) | – | > 100 µM (inactive) | – | –
C#CCC(O)c1ccccc1C(O)CC#C (centres undefined) | – | > 100 µM (inactive) | > 100 µM (inactive) | 29 µM (inactive) | > 100 µM (inactive) | > 100 µM (inactive) | > 100 µM (inactive) | > 100 µM (inactive) | > 100 µM (inactive) | > 100 µM (inactive) | > 100 µM (inactive) | – | > 100 µM (inactive) | 65.2 µM (inactive) | > 100 µM (inactive) | – | – | > 100 µM (inactive) | – | –
N#Cc1cc([N+](=O)[O-])ccc1NC(=O)C(=O)C(C(=O)/C=C/c1ccccc1)C1OC(=O)c2ccccc21 (centres undefined) | > 100 µM (inactive) | > 100 µM (inactive) | > 100 µM (inactive) | 60.5 µM (inactive) | > 100 µM (inactive) | > 100 µM (inactive) | > 100 µM (inactive) | 13.9 µM (inactive) | > 100 µM (inactive) | > 100 µM (inactive) | > 100 µM (inactive) | > 100 µM (inactive) | > 100 µM (inactive) | > 100 µM (inactive) | > 100 µM (inactive) | > 100 µM (inactive) | – | > 100 µM (inactive) | – | –
COc1cc2ccc3c4ccccc4cnc3c2cc1OC | > 100 µM (inactive) | > 100 µM (inactive) | > 100 µM (inactive) | > 100 µM (inactive) | > 100 µM (inactive) | > 100 µM (inactive) | > 100 µM (inactive) | > 100 µM (inactive) | > 100 µM (inactive) | > 100 µM (inactive) | > 100 µM (inactive) | > 100 µM (inactive) | > 100 µM (inactive) | > 100 µM (inactive) | > 100 µM (inactive) | > 100 µM (inactive) | – | > 100 µM (inactive) | – | –
C/C(=N/NC(=O)C[N+](C)(C)C)C(CN(C)C)C(=O)Nc1ccccc1 (centres undefined) | > 100 µM (inactive) | > 100 µM (inactive) | > 100 µM (inactive) | > 100 µM (inactive) | > 100 µM (inactive) | > 100 µM (inactive) | > 100 µM (inactive) | > 100 µM (inactive) | > 100 µM (inactive) | > 100 µM (inactive) | > 100 µM (inactive) | > 100 µM (inactive) | > 100 µM (inactive) | > 100 µM (inactive) | > 100 µM (inactive) | > 100 µM (inactive) | – | > 100 µM (inactive) | – | –
N#CC(C(=O)C(N)=O)c1ccccc1Cl (centres undefined) | > 100 µM (inactive) | > 100 µM (inactive) | > 100 µM (inactive) | > 100 µM (inactive) | > 100 µM (inactive) | – | > 100 µM (inactive) | > 100 µM (inactive) | > 100 µM (inactive) | > 100 µM (inactive) | > 100 µM (inactive) | > 100 µM (inactive) | > 100 µM (inactive) | > 100 µM (inactive) | > 100 µM (inactive) | > 100 µM (inactive) | – | > 100 µM (inactive) | – | –
COCCN1C2=CCCCC2=Nc2c1nc(N)[nH]c2=O | > 100 µM (inactive) | > 100 µM (inactive) | > 100 µM (inactive) | > 100 µM (inactive) | > 100 µM (inactive) | > 100 µM (inactive) | > 100 µM (inactive) | > 100 µM (inactive) | > 100 µM (inactive) | > 100 µM (inactive) | > 100 µM (inactive) | > 100 µM (inactive) | > 100 µM (inactive) | > 100 µM (inactive) | > 100 µM (inactive) | > 100 µM (inactive) | – | > 100 µM (inactive) | – | –
CC1(C)COC(c2cccnc2/C=N/O)=N1 | > 100 µM (inactive) | > 100 µM (inactive) | > 100 µM (inactive) | > 100 µM (inactive) | > 100 µM (inactive) | > 100 µM (inactive) | > 100 µM (inactive) | > 100 µM (inactive) | > 100 µM (inactive) | > 100 µM (inactive) | > 100 µM (inactive) | > 100 µM (inactive) | > 100 µM (inactive) | > 100 µM (inactive) | > 100 µM (inactive) | > 100 µM (inactive) | – | > 100 µM (inactive) | – | –
